Measurements reported in PubChem BioAssay AID1845210 (Molecular Pharmacology Branch, DTP, NCI, 2023).

Tested on: NCI-H226 complex tumor spheroids, viability
Test: Anticancer human tumor NCI-H226 cell line growth inhibition;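 also: spheroids exposed to compound for 7 days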;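 as to viability, T/C: 100% = DMSO vehicle control viability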
Conditions: for IC50: curve of first compound; for viability, T/C: stronger effect = lower value
Procedure, shortened: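 Complex spheroids of malignant cells with endothelial cells and mesenchymal stem cells; agents alone or combined, from near clinical Cmax (or 10 microM if unknown) down in half-log steps, 0.25% DMSO final.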

[1] = second compound 30 pM, first compound 0.00949 µM
[2] = second compound 30 pM, first compound 0.03 µM
[3] = second compound 30 pM, first compound 0.0949 µM
[4] = second compound 30 pM, first compound 0.3 µM
[5] = second compound 30 pM, first compound 0.949 µM
[6] = second compound 30 pM, first compound 3 µM
[7] = second compound 94.9 pM, first compound 0.00949 µM
[8] = second compound 94.9 pM, first compound 0.03 µM
[9] = second compound 94.9 pM, first compound 0.0949 µM
[10] = second compound 94.9 pM, first compound 0.3 µM
[11] = second compound 94.9 pM, first compound 0.949 µM
[12] = second compound 94.9 pM, first compound 3 µM
[13] = second compound 0.0003 µM, first compound 0.00949 µM
[14] = second compound 0.0003 µM, first compound 0.03 µM
[15] = second compound 0.0003 µM, first compound 0.0949 µM
[16] = second compound 0.0003 µM, first compound 0.3 µM
[17] = second compound 0.0003 µM, first compound 0.949 µM
[18] = second compound 0.0003 µM, first compound 3 µM
[19] = second compound 0.000949 µM, first compound 0.00949 µM
[20] = second compound 0.000949 µM, first compound 0.03 µM
[21] = second compound 0.000949 µM, first compound 0.0949 µM
[22] = second compound 0.000949 µM, first compound 0.3 µM
[23] = second compound 0.000949 µM, first compound 0.949 µM
[24] = second compound 0.000949 µM, first compound 3 µM
[25] = second compound 0.003 µM, first compound 0.00949 µM
[26] = second compound 0.003 µM, first compound 0.03 µM
[27] = second compound 0.003 µM, first compound 0.0949 µM
[28] = second compound 0.003 µM, first compound 0.3 µM
[29] = second compound 0.003 µM, first compound 0.949 µM
[30] = second compound 0.003 µM, first compound 3 µM

## CNCc1ccc(-c2cc(-c3nc(-c4ccc(S(=O)(=O)C(C)C)cc4)cnc3N)on2)cc1 + COc1cc2c(cc1O)CCNC21CSC2c3c(OC(C)=O)c(C)c4c(c3C(COC1=O)N1C(O)C3Cc5cc(C)c(OC)c(O)c5C(C21)N3C)OCO4
Second compound 30 pM
  IC50: 1610 nM
Second compound 94.9 pM
  IC50: 1480 nM
Second compound 0.0003 µM
  IC50: 1500 nM
Second compound 0.000949 µM
  IC50: 1020 nM
Second compound 0.003 µM
  IC50: < 9.49 nM
[1]
  viability, T/C: 89.5%
[2]
  viability, T/C: 96.1%
[3]
  viability, T/C: 103%
[4]
  viability, T/C: 123%
[5]
  viability, T/C: 91.9%
[6]
  viability, T/C: 0.9%
[7]
  viability, T/C: 85.9%
[8]
  viability, T/C: 99.4%
[9]
  viability, T/C: 105%
[10]
  viability, T/C: 127%
[11]
  viability, T/C: 80.9%
[12]
  viability, T/C: 0.45%
[13]
  viability, T/C: 89.7%
[14]
  viability, T/C: 105%
[15]
  viability, T/C: 106%
[16]
  viability, T/C: 138%
[17]
  viability, T/C: 82.9%
[18]
  viability, T/C: 0.44%
[19]
  viability, T/C: 88.1%
[20]
  viability, T/C: 94.1%
[21]
  viability, T/C: 124%
[22]
  viability, T/C: 91.4%
[23]
  viability, T/C: 53.9%
[24]
  viability, T/C: 0.33%
[25]
  viability, T/C: 2.12%
[26]
  viability, T/C: 1.88%
[27]
  viability, T/C: 3%
[28]
  viability, T/C: 1.46%
[29]
  viability, T/C: 0.37%
[30]
  viability, T/C: 0.31%

## Cc1sc2c(c1C)C(c1ccc(Cl)cc1)=NC(CC(=O)Nc1ccc(O)cc1)c1nnc(C)n1-2 (stereo not given) + COc1cc2c(cc1O)CCNC21CSC2c3c(OC(C)=O)c(C)c4c(c3C(COC1=O)N1C(O)C3Cc5cc(C)c(OC)c(O)c5C(C21)N3C)OCO4
Second compound 30 pM
  IC50: > 3000 nM
Second compound 94.9 pM
  IC50: > 3000 nM
Second compound 0.0003 µM
  IC50: > 3000 nM
Second compound 0.000949 µM
  IC50: 257 nM
Second compound 0.003 µM
  IC50: < 9.49 nM
[1]
  viability, T/C: 97%
[2]
  viability, T/C: 93.1%
[3]
  viability, T/C: 84%
[4]
  viability, T/C: 84.9%
[5]
  viability, T/C: 68%
[6]
  viability, T/C: 64.8%
[7]
  viability, T/C: 105%
[8]
  viability, T/C: 91.8%
[9]
  viability, T/C: 87.1%
[10]
  viability, T/C: 77.6%
[11]
  viability, T/C: 73.9%
[12]
  viability, T/C: 66%
[13]
  viability, T/C: 101%
[14]
  viability, T/C: 84.7%
[15]
  viability, T/C: 75.2%
[16]
  viability, T/C: 75.9%
[17]
  viability, T/C: 72.6%
[18]
  viability, T/C: 48.7%
[19]
  viability, T/C: 138%
[20]
  viability, T/C: 78.6%
[21]
  viability, T/C: 68.2%
[22]
  viability, T/C: 67.1%
[23]
  viability, T/C: 19.7%
[24]
  viability, T/C: 7.53%
[25]
  viability, T/C: 2.09%
[26]
  viability, T/C: 0.99%
[27]
  viability, T/C: 0.74%
[28]
  viability, T/C: 0.28%
[29]
  viability, T/C: 0.28%
[30]
  viability, T/C: 0.51%

## Cn1ncnc1[C@H]1c2n[nH]c(=O)c3cc(F)cc(c23)N[C@@H]1c1ccc(F)cc1 + COc1cc2c(cc1O)CCNC21CSC2c3c(OC(C)=O)c(C)c4c(c3C(COC1=O)N1C(O)C3Cc5cc(C)c(OC)c(O)c5C(C21)N3C)OCO4
Second compound 30 pM
  IC50: > 3000 nM
Second compound 94.9 pM
  IC50: > 3000 nM
Second compound 0.0003 µM
  IC50: > 3000 nM
Second compound 0.000949 µM
  IC50: > 3000 nM
Second compound 0.003 µM
  IC50: 157 nM
[1]
  viability, T/C: 90%
[2]
  viability, T/C: 103%
[3]
  viability, T/C: 106%
[4]
  viability, T/C: 92.8%
[5]
  viability, T/C: 91.3%
[6]
  viability, T/C: 111%
[7]
  viability, T/C: 103%
[8]
  viability, T/C: 101%
[9]
  viability, T/C: 104%
[10]
  viability, T/C: 102%
[11]
  viability, T/C: 101%
[12]
  viability, T/C: 110%
[13]
  viability, T/C: 122%
[14]
  viability, T/C: 100%
[15]
  viability, T/C: 113%
[16]
  viability, T/C: 119%
[17]
  viability, T/C: 119%
[18]
  viability, T/C: 113%
[19]
  viability, T/C: 79.2%
[20]
  viability, T/C: 76.2%
[21]
  viability, T/C: 71.1%
[22]
  viability, T/C: 93.3%
[23]
  viability, T/C: 87.1%
[24]
  viability, T/C: 76.2%
[25]
  viability, T/C: 53.1%
[26]
  viability, T/C: 70.3%
[27]
  viability, T/C: 85.7%
[28]
  viability, T/C: 24.9%
[29]
  viability, T/C: 20.6%
[30]
  viability, T/C: 0.42%

## O=C(c1cc(Cc2n[nH]c(=O)c3ccccc23)ccc1F)N1CCN(C(=O)C2CC2)CC1 + COc1cc2c(cc1O)CCNC21CSC2c3c(OC(C)=O)c(C)c4c(c3C(COC1=O)N1C(O)C3Cc5cc(C)c(OC)c(O)c5C(C21)N3C)OCO4
Second compound 30 pM
  IC50: > 30000 nM
Second compound 94.9 pM
  IC50: > 30000 nM
Second compound 0.0003 µM
  IC50: > 30000 nM
Second compound 0.000949 µM
  IC50: > 30000 nM
Second compound 0.003 µM
  IC50: < 94.9 nM
[3]
  viability, T/C: 94.5%
[4]
  viability, T/C: 109%
[5]
  viability, T/C: 109%
[6]
  viability, T/C: 108%
Second compound 30 pM, first compound 9.49 µM
  viability, T/C: 99.4%
Second compound 30 pM, first compound 30 µM
  viability, T/C: 82.5%
[9]
  viability, T/C: 109%
[10]
  viability, T/C: 95%
[11]
  viability, T/C: 105%
[12]
  viability, T/C: 101%
Second compound 94.9 pM, first compound 9.49 µM
  viability, T/C: 99.4%
Second compound 94.9 pM, first compound 30 µM
  viability, T/C: 102%
[15]
  viability, T/C: 115%
[16]
  viability, T/C: 129%
[17]
  viability, T/C: 126%
[18]
  viability, T/C: 118%
Second compound 0.0003 µM, first compound 9.49 µM
  viability, T/C: 112%
Second compound 0.0003 µM, first compound 30 µM
  viability, T/C: 93.2%
[21]
  viability, T/C: 126%
[22]
  viability, T/C: 112%
[23]
  viability, T/C: 100%
[24]
  viability, T/C: 103%
Second compound 0.000949 µM, first compound 9.49 µM
  viability, T/C: 87.4%
Second compound 0.000949 µM, first compound 30 µM
  viability, T/C: 49.5%
[27]
  viability, T/C: 2.43%
[28]
  viability, T/C: 16.1%
[29]
  viability, T/C: 1.13%
[30]
  viability, T/C: 2.74%
Second compound 0.003 µM, first compound 9.49 µM
  viability, T/C: 0.95%
Second compound 0.003 µM, first compound 30 µM
  viability, T/C: 0.69%
